Several values for one entry are separate records, joined by “and”; a condition that tells them apart may be missing. Identical values can stand only once. Entries after “also recorded” stand apart in the source; their conditions may differ. Like-named read-outs stand apart in the source and are kept apart here.

The target of the test is T1, human D2 receptor (Homo sapiens, UniProt P14416).
T1 construct: host or cells: CHO-K1
Description: Dopamine assay: functional cAMP read-out (HitHunter cAMP XS+, Gi/o agonist format). It is filed as cell-based. The note with it: for EC50: CHO-K1 cells overexpressing the human D2 receptor, cAMP read-out, 25 µM forskolin, n = 2 independent experiments; for dopaminergic activity (in words): isolated compounds, D2 receptor activity assay; for change in activity on the D2 receptor relative to 7: compared with 3-epi-maslinic acid (7). The procedure:
Dopaminergic activity was determined with a functional assay in CHO-K1 cells overexpressing the human D2 receptor, using a cAMP read-out (Eurofins DiscoverX Corporation, Fremont, CA, USA). The cells (5000 cells/cm^2) were seeded in a total volume of 20 μL onto white 384-well microplates and incubated at 37 °C for 18 h prior to testing. cAMP modulation was determined using the DiscoverX HitHunter cAMP XS+ assay. Since the D2 receptor couples mainly to Gi/o (inhibitory towards cAMP), the assay was run in Gi/o agonist format. In brief, the cells were incubated with the samples in the presence of 25 µM forskolin to induce a response. Medium was aspirated from cells and replaced with 10 µL HBSS/10 mM Hepes (assay buffer). Intermediate dilution of sample stocks was performed in the assay buffer to generate a concentration 4-fold higher (4×) than the final in-well concentration. A total of 5 µL of 4× sample was added to the cells, followed by 5 µL 4× EC80 forskolin in the assay buffer and incubated at 37 °C for 30 min. The final DMSO concentration (vehicle) was 1%. After appropriate compound incubation, the assay signal was generated through incubation with 5 µL of cAMP XS + Ab reagent followed by 20 μL cAMP XS + ED/CL lysis cocktail for one hour followed by incubation with 20 μL cAMP XS + EA reagent for three hours at room temperature. The microplates were read following signal generation with an Envision^TM instrument (PerkinElmer, Waltham, MA, USA) for chemiluminescent signal detection.
For Gi agonist mode assays, percentage activity was calculated using the following formula: % Activity = 100% × (1 − (mean RLU of test sample − mean RLU of MAX control)/(mean RLU of vehicle control − mean RLU of MAX control)). Concentration–response curves were generated using EC50 using Graphpad Prism version 9.0 (Graphpad Software, Boston, MA, USA), and curve fitting was performed using non-linear regression analysis applying the following variable slope equation: Y = Bottom + (Top − Bottom)/(1 + 10^((LogEC50 − X) × HillSlope)).

The mark [1] stands for this setting: read-out: EC50 at the D2 receptor.

T1 sequence (P14416 whole entry): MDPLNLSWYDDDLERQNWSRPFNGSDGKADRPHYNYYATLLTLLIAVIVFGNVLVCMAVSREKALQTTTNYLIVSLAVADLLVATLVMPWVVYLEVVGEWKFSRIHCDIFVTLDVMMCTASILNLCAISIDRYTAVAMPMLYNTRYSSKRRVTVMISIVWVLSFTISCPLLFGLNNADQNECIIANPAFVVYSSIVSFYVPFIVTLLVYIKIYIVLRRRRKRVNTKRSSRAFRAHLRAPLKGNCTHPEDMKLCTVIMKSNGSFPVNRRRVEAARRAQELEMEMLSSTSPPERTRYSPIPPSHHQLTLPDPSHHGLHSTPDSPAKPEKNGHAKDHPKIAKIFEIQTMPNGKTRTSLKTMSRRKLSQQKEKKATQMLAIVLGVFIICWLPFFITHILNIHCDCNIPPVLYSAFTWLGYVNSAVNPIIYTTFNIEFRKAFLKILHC

`CC1(C)CC[C@]2(C(=O)O)CC[C@]3(C)C(=CC[C@@H]4[C@@]5(C)C[C@@H](O)[C@H](O)[C@@](C)(CO)[C@@H]5CC[C@]43C)[C@@H]2C1` [arjunolic acid, reference compound]: the concentration giving a half-maximal response (EC50) (as a rule, the midpoint of the concentration-response curve) under setting [1] is at least 50 µM.
Take `CC(=O)O[C@@H]1C[C@@H](C)[C@](O)(CCC2=CC(=O)OC2O)[C@@]2(C)CCCC(C)(C)[C@H]12` (stereo partly shown) [compound 1, Viteagnusin I]: the IC50 (in general, the point on the concentration scale where inhibition reaches its midpoint) is 6.6 µM. Also, the EC50 (EC50 at the D2 receptor) was 6.61 µM and 6.6 µM.
`CC(=O)O[C@@H]1C[C@@H](C)[C@](O)(CCc2ccoc2)[C@@]2(C)CCCC(C)(C)[C@H]12` [compound 2, Rotundifuran]: the EC50 under setting [1] was found to be 12.8 µM.
For `CC(=O)O[C@@H]1C[C@@H](C)[C@](O)(CCC2=CC(=O)OC2)[C@@]2(C)CCCC(C)(C)[C@H]12` [compound 3, Vitexilactone], the EC50 under setting [1] is above 50 µM.
As to `C=CC(C)(O)CC[C@@H]1[C@@]2(C)CCCC(C)(C)[C@@H]2CC[C@]1(C)O` (stereo partly drawn) [compound 4, 8-epi-Sclareol], the “dopaminergic activity (in words)” value is “either negligible or no dopaminergic activity; also recorded: either weak or no dopaminergic activity”. Under setting [1], the half-maximal effective concentration (EC50) is 24.3 µM.
For `C=CC(C)(O)CC[C@H]1[C@@]2(C)CCCC(C)(C)[C@@H]2CC[C@@]1(C)O` (stereo partly shown) [compound 5, Viteagnusin C], the “dopaminergic activity (in words)” value is “either negligible or no dopaminergic activity; also recorded: either weak or no dopaminergic activity”. Besides, under setting [1], the EC50 is above 50 µM.
In the case of `C=CC(C)(O)CC[C@@]1(C)C2=C([C@H](OC(C)=O)[C@H](OC(C)=O)[C@H]1C)C(C)(C)CCC2` (stereo partly shown) [compound 6, Vitetrifolin D], the “dopaminergic activity (in words)” value is given as “either negligible or no dopaminergic activity; also recorded: either weak or no dopaminergic activity”. Besides, the concentration for a half-maximal effect (EC50) (EC50 at the D2 receptor) is above 50 µM.
Take `CC1(C)CC[C@]2(C(=O)O)CC[C@]3(C)C(=CC[C@@H]4[C@@]5(C)C[C@@H](O)[C@@H](O)C(C)(C)[C@@H]5CC[C@]43C)[C@@H]2C1` [compound 7, 3-epi-Maslinic acid]: the “dopaminergic activity (in words)” value is reported as “active”. Besides, under “EC50 at the D2 receptor”, the EC50 was 5.1 µM.
Take `CC1(C)CC[C@]2(C(=O)O)CC[C@]3(C)C(=CC[C@@H]4[C@@]5(C)C[C@@H](O)[C@H](O)C(C)(C)[C@@H]5CC[C@]43C)[C@@H]2C1` [compound 8, Maslinic acid]: the “change in activity on the D2 receptor relative to 7” value turned out to be 4 fold and the “dopaminergic activity (in words)” value is “active”. For the same compound, where the note is “EC50 at the D2 receptor”, the EC50 worked out at 21.3 µM.
For `C[C@H]1[C@H](C)CC[C@]2(C(=O)O)CC[C@]3(C)C(=CC[C@@H]4[C@@]5(C)C[C@@H](O)[C@@H](O)C(C)(C)[C@@H]5CC[C@]43C)[C@H]12` [compound 9, 3-epi-Corosolic acid], the “change in activity on the D2 receptor relative to 7” value is 2 fold and the “dopaminergic activity (in words)” value is listed as “active”. The EC50 (EC50 at the D2 receptor) amounted to 10.7 µM.
For `C[C@H]1[C@H](C)CC[C@]2(C(=O)O)CC[C@]3(C)C(=CC[C@@H]4[C@@]5(C)C[C@@H](O)[C@H](O)C(C)(C)[C@@H]5CC[C@]43C)[C@H]12` [compound 10, Corosolic acid], the EC50 (EC50 at the D2 receptor) was above 50 µM. Further, under “epimers 9 and 10, differing at C3”, the “change in activity on the D2 receptor relative to 9” value was above 5 fold.
For the compound `C[C@@H]1CC[C@]2(C(=O)O)CC[C@]3(C)C(=CC[C@@H]4[C@@]5(C)C[C@@H](O)[C@@H](O)C(C)(C)[C@@H]5CC[C@]43C)[C@@H]2[C@]1(C)O` [compound 11, Euscaphic acid], the 50% effective concentration (EC50) under setting [1] was above 50 µM.
On the same count and under the same terms, to `C[C@@H]1CC[C@]2(C(=O)O)CC[C@]3(C)C(=CC[C@@H]4[C@@]5(C)C[C@@H](O)[C@H](O)C(C)(C)[C@@H]5CC[C@]43C)[C@@H]2[C@]1(C)O` [compound 12, Tormentic acid] belongs above 50 µM.
In the case of `CC1(C)CC[C@]2(C(=O)O)CC[C@]3(C)C(=CC[C@@H]4[C@@]5(C)CC[C@H](O)C(C)(C)[C@@H]5CC[C@]43C)[C@@H]2C1` [oleanolic acid, reference compound], the EC50 (EC50 at the D2 receptor) was at least 50 µM.
In the case of `C[C@H]1[C@H](C)CC[C@]2(C(=O)O)CC[C@]3(C)C(=CC[C@@H]4[C@@]5(C)CC[C@H](O)C(C)(C)[C@@H]5CC[C@]43C)[C@H]12` [ursolic acid, reference compound], under setting [1], the EC50 was at least 50 µM.

(Values after publication PMC11547015 (International Journal of Molecular Sciences, 2024).)
